Among the data in patent US12637468B2, “Substituted [1,2,4]triazolo[4,3-b]pyridazines as GABAA receptor modulators” (SHANGHAI SIMR BIOTECHNOLOGY CO., LTD., priority 2019, dated 2026) are inhibition values, retold here.

In the test the target is T1, α5-GABAA receptor (Homo sapiens, UniProt P18507+P31644).
T1 construct: expressed in transfected cells; host or cells: HEK293, monoclonal stably transfected line
T1 sequence (P31644 32-462): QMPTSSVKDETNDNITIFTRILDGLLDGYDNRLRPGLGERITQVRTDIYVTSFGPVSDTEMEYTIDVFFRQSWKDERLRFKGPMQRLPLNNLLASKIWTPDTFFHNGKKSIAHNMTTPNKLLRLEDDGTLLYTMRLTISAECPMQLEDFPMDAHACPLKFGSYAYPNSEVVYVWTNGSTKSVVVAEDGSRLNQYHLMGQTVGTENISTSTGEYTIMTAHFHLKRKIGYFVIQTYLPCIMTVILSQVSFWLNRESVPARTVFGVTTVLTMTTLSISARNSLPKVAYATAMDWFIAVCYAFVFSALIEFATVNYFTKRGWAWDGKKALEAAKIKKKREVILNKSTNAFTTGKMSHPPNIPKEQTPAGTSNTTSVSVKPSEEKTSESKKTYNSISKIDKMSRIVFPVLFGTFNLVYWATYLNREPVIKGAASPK
T1 sequence (P28472 26-473 partner): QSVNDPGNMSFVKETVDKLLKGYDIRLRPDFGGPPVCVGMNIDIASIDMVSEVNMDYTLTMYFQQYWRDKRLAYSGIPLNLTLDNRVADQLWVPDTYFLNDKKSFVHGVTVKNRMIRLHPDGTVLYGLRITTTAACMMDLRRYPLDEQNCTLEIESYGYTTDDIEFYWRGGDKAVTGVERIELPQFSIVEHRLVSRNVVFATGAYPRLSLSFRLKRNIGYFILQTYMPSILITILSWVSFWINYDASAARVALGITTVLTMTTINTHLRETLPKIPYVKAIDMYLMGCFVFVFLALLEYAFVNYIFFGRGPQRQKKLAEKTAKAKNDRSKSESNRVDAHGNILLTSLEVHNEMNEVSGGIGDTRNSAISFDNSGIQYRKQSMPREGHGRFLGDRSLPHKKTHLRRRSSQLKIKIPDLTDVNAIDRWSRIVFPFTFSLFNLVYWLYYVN
T1 sequence (P18507 40-467 isoform P18507-1 limits assumed): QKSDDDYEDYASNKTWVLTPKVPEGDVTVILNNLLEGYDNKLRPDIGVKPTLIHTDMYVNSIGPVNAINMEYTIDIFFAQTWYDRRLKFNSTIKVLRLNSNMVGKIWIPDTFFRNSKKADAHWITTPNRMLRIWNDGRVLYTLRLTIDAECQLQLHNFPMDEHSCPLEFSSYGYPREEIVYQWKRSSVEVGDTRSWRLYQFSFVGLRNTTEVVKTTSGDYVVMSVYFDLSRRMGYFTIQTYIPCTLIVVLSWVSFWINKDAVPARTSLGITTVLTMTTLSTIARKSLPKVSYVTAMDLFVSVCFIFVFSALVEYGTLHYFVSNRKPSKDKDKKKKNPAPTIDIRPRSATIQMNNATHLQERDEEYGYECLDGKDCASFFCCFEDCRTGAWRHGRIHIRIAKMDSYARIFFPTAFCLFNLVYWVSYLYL
The experiment in a line: Cell-level screening: whole cell patch clamp, inverse agonist efficacy on α5-GABAA receptor expressed in HEK293. The test is classed as cell-based. The settings on record: drug 100 nM, GABA 0.05 μM, HEK293 expressing α5, β3 and γ2 subunits, clamped at −60 mV; read-out: Compound inverse agonist efficacy %. Here is the method:
The inventors used electrophysiological methods to determine the inverse agonist efficacy of the drugs to be tested on the α5-GABAA receptor. The detailed methods are as follows:
Different subunits of GABAA receptors were expressed in human […] cell line 293 (HEK293) cell line. The cells were cultured in a culture medium and used as a cell model for screening pain inhibiting drugs. The α, β and γ subunits are necessary to form complete functional GABAA receptors. In this embodiment, the inventors had established the following cell model: α5 subunit (see GenBank Accession No. NM_000810.3 for protein sequences), β3 subunit (see GenBank Accession No. NM_000814.5 for protein sequences) and γ2 subunit (see GenBank Accession No. NM_000816.3 for protein sequences) were expressed in HEK293 cell line at the same time, followed by screening the monoclonal cell line. This cell line contained α5-GABAA receptor and had complete GABAA receptor function.
The monoclonal stably transfected HEK-293 cells expressing α5-GABAA receptor were cultured in 10 cm culture dishes and passaged when the cells grew to 80%-90%. During passaging, the culture medium was aspirated first, then 3 mL of DPBS phosphate buffer salt (Gibco™) was added to the culture dishes, and the culture dishes were shaken slightly, and DPBS was aspirated. 1 mL of trypsin (TrypLE Express, Gibco™) was added thereto, and the cells were digested at 37° C. for 1-2 minutes. Then 3 mL of complete medium (DMEM+10% FBS (Gibco™)) was added and the cells at the bottom of the culture dishes were dispersed. The cell suspension were transferred to a 15 mL centrifugal tube (Corning) and then centrifuged at 200 g for 3 minutes. The supernatant was discarded, 4 mL of complete medium was added, and the cells were gently blown and resuspended for use. If cell passaging was performed, the cell suspension was diluted at a ratio of 1:5 or 1:10. If cells for electrophysiology use were prepared, the cell suspension was diluted in a ratio of 1:12, then added into a 24-well dish (Corning™) in which glass slides were placed and pretreated with Poly-D-Lysine, and the cells were tested after being attached to the walls. The culture time of cells for electrophysiology use was no more than 48 hours.
Drug concentration setting: the final drug concentration used in drug screening was 100 nM, and the GABA concentration range was 0.05 μM. The final drug concentrations used in the dose-inversal agonistic efficiency (%) test were 0.3 nM, 3 nM, 10 nM, 30 nM, 100 nM and 300 nM. The whole cell patch clamp technique was used in electrophysiological experiments, which could refer to the literature (I. Lecker, Y. Yin, D. S. Wang and B. A. Orser, (2013) Potentiation of GABAA receptor activity by volatile anaesthetics is reduced by α5-GABAA receptor-preferring inverse agonists, British Journal of Anaesthesia 110 (S1): i73-i81). The components of extracellular solution (ECS) for electrophysiology use were as follows: 150 mM NaCl, 5 mM KCl, 2.5 mM CaCl2), 1 mM MgCl2, 10 mM HEPES and 10 mM glucose (pH 7.4); electrode internal solutions for electrophysiology use were as follows: 140 mM CsCl, 11 mM EGTA, 10 mM HEPES, 2 mM CaCl2), 1 mM MgCl2, 4 mM MgATP, 2 mM TEA (pH 7.3). The signal acquisition used an EPC-10 amplifier and the PatchMaster software (HEKA). The recording electrode was drawn using borosilicate glass, and the electrode resistance was 4 to 6 MΩ. The ALA-VC3-8PP™ system was used for extracellular administration. Separate cells that grew independently was selected for recording. During recording, the cell membrane potential was clamped at −60 mV. During experiment, an extracellular solution was applied to the cells for about 20 seconds. When the baseline reached to a stable state, the extracellular solution was switched to GABA. Then the current induced by GABA could be detected. […]
On the technique in general: The patch-clamp technique gives a direct electrical read-out from membranes.
For `COc1cc2nnc(-c3cc(C)on3)n2nc1OCc1ccc2c(n1)CCN(S(C)(=O)=O)C2` [Embodiment 209], the inhibition at 0.1 µM is 48.8%.
The value for `COc1ccc2nc(COc3nn4c(-c5cc(C)on5)nnc4cc3OC)ccc2c1` [Embodiment 136] was 37.3%.
Turning to `COc1cc2nnc(-c3cc(C)on3)n2nc1OCc1ccn2nccc2n1` [Embodiment 64], the inhibition at 0.1 µM is 40%.
As for `COc1cc2nnc(-c3cc(C)on3)n2nc1OCc1ccc2c(n1)CCN(c1nnc(C)o1)C2` [Embodiment 192], the inhibition at 0.1 µM is 40.8%.
Regarding `CCOc1ccc(COc2nn3c(-c4cc(C)on4)nnc3cc2OC)nc1` [Embodiment 23], the inhibition at 0.1 µM is 41.2%.
The result for `COc1cc2nnc(-c3cc(C)on3)n2nc1OCc1ccc(C(F)(F)F)cn1` [Embodiment 59] reads 35.7%; that for `COc1cc2nnc(-c3cc(C)on3)n2nc1OCc1ccc2c(n1)CN(C1COC1)C2` [Embodiment 255], 45.4%.
The value for `COc1cc2nnc(-c3cc(C)on3)n2nc1OCc1ccc(OCC2CCOCC2)nn1` [Embodiment 171] was 53.1%; that for `COc1cc2nnc(-c3cc(C)on3)n2nc1OCc1cccc(C#N)n1` [Embodiment 40] was 39%.
The result for `COc1cc2nnc(-c3cc(C)on3)n2nc1OCc1cccc(C2CCNC2)n1` (stereo not shown) [Embodiment 123] reads 36.7%.
Consider `COc1cc2nnc(-c3cc(C)on3)n2nc1OCc1cnc(OC2COC2)cn1` [Embodiment 157], for which the inhibition at 0.1 µM stood at 46.8%.
The result for `COc1cc2nnc(-c3cc(C)on3)n2nc1OCc1ccc2c(n1)CCN(S(=O)(=O)N(C)C)C2` [Embodiment 205, 2-(((7-Methoxy-3-(5-methylisoxazol-3-yl)-[1,2,4]triazolo[4,3-b]pyridazin-6-yl)oxy)methyl)-N,N-dimethyl-7,8-dihydro-1,6-naphthyridine-6(5H)-sulfonamide] reads 52.5%; that for `COc1cc2nnc(-c3cc(C)on3)n2nc1OCc1ccc2c(n1)CCN(Cc1nnc(C)o1)C2` [Embodiment 188], 52.4%; that for `COc1cc2nnc(-c3cc(C)on3)n2nc1OCc1cnc(OCC2CCCO2)cn1` (stereo not shown) [Embodiment 178], 36.7%.
With `COCCOc1nccc2nc(COc3nn4c(-c5cc(C)on5)nnc4cc3OC)ccc12` [Embodiment 146], the inhibition at 0.1 µM amounted to 33.4%.
For `COCCn1ccc2ccc(COc3nn4c(-c5cc(C)on5)nnc4cc3OC)nc21` [Embodiment 92], the inhibition at 0.1 µM was 52.8%.
The result for `COCCOc1ccc(COc2nn3c(-c4cc(C)on4)nnc3cc2OC)nn1` [Embodiment 26] reads 41.7%; that for `CCN1CC(Oc2ccc(COc3nn4c(-c5cc(C)on5)nnc4cc3OC)nc2)C1` [Embodiment 134], 30.4%.
The value for `COc1cc2nnc(-c3cc(C)on3)n2nc1OCc1ccc2cnccc2n1` [Embodiment 140] was 49.3%.
The result for `COc1cc2nnc(-c3cc(C)on3)n2nc1OCc1ccc2c(n1)CCN(CC(F)(F)CO)C2` [Embodiment 196] reads 50.8%; that for `CCOC(=O)N1CCc2nc(COc3nn4c(-c5cc(C)on5)nnc4cc3OC)ccc2C1` [Embodiment 111, Ethyl 2-(((7-methoxy-3-(5-methylisoxazol-3-yl)-[1,2,4]triazolo[4,3-b]pyridazin-6-yl)oxy)methyl)7,8-dihydro-1,6-naphthyridine-6(5H)-carboxylate], 59.6%.
For `COc1cc2nnc(-c3cc(C)on3)n2nc1OCc1cc(C#N)ccn1` [Embodiment 29], the inhibition at 0.1 µM was 66.9%.
Take `COc1cc2nnc(-c3cc(C)on3)n2nc1OCc1ccc2c(cnn2Cc2ccccc2)n1` [Embodiment 222]: the inhibition at 0.1 µM amounted to 44.3%.
The result for `COc1cc2nnc(-c3cc(C)on3)n2nc1OCc1ccc(S(C)(=O)=O)cn1` [Embodiment 53] reads 48.8%; that for `COc1cc2nnc(-c3cc(C)on3)n2nc1OCc1ccc(OC(F)F)cn1` [Embodiment 24], 35%.
The value for `COCCCn1ccc2ccc(COc3nn4c(-c5cc(C)on5)nnc4cc3OC)nc21` [Embodiment 93] was 36.5%.
The result for `COCCOc1ccc(COc2nn3c(-c4noc(C)n4)nnc3cc2OC)nc1` [Embodiment 132] reads 57.3%.
On to `C=CC(=O)N1CCc2nc(COc3nn4c(-c5cc(C)on5)nnc4cc3OC)ccc2C1` [Embodiment 108, 1-(2-(((7-Methoxy-3-(5-methylisoxazol-3-yl)-[1,2,4]triazolo[4,3-b]pyridazin-6-yl)oxy)methyl)-7,8-dihydro-1,6-naphthyridin-6(5H)-yl)prop-2-en-1-one], for which the inhibition at 0.1 µM was determined as 54.9%.
`COCc1cc(-c2nnc3cc(OC)c(OCc4ccc(OC)cn4)nn23)no1` [Embodiment 48, 3-(7-Methoxy-6-((5-methoxypyridin-2-yl)methoxy)-[1,2,4]triazolo[4,3-b]pyridazine-3-yl)-5-(methoxymethyl)isoxazole]: the inhibition at 0.1 µM amounted to 34.7%.
The value for `COc1cc2nnc(-c3cc(C)on3)n2nc1OCc1ccc2c(n1)CCN(C(=O)c1ccccc1)C2` [Embodiment 131] was 52.2%; that for `COc1cc2nnc(-c3cc(C)on3)n2nc1OCc1ccc(Cl)cn1` [Embodiment 20] was 42.9%; that for `CCN1CCc2nc(COc3nn4c(-c5cc(C)on5)nnc4cc3OC)ccc2C1` [Embodiment 79] was 47.6%.
On to `COc1cc2nnc(-c3cc(C)on3)n2nc1OCc1ccc2nn(CCc3ccccc3)cc2n1` [Embodiment 230, 3-(7-Methoxy-6-(((2-phenethyl-2H-pyrazolo[4,3-b]pyridin-5-yl]methoxy])-[1,2,4]triazolo[4,3-b]pyridazin-3-yl)-5-methylisoxazole], for which the inhibition at 0.1 µM came out at 57.2%.
The value for `COc1cc2nnc(-c3cc(C)on3)n2nc1OCc1ccc(C2=CCCCC2)cn1` [Embodiment 13] was 29%; that for `COc1cc2nnc(-c3cc(C)on3)n2nc1OCc1ccc2c(n1)CCN(C(C)C)C2` [Embodiment 83] was 39.9%; that for `COc1cc2nnc(-c3cc(C)on3)n2nc1OCc1ccc2ncn(C)c2n1` [Embodiment 101] was 32.9%.
`COc1cc2nnc(-c3cc(C)on3)n2nc1OCc1ccc(OC2COC2)cn1` [Embodiment 175]: the inhibition at 0.1 µM stood at 36%.
For `COc1cc2nnc(-c3cc(C)on3)n2nc1OCc1ccc2c(n1)CNC2` [Embodiment 98], the inhibition at 0.1 µM was 38%.
The value for `COc1cc2nnc(-c3cc(C)on3)n2nc1OCc1ccc2c(n1)CCN(C(=O)CC#N)C2` [Embodiment 143] was 49.6%; that for `COc1cc2nnc(-c3cc(C)on3)n2nc1OCc1ccc2c(n1)CCN(c1cc(C)on1)C2` [Embodiment 191] was 44%.
With `COc1cc2nnc(-c3cc(C)on3)n2nc1OCc1ccc2c(n1)CCN([C@@H]1CCOC1)C2` (single isomer, unassigned) [Embodiment 182], the inhibition at 0.1 µM was 53.8%.
The value for `COc1cc2nnc(-c3cc(C)on3)n2nc1OCc1ccc2ccn(C3CCOCC3)c2n1` [Embodiment 252] was 42.2%.
In the case of `COCCCn1ccc2nc(COc3nn4c(-c5cc(C)on5)nnc4cc3OC)ccc2c1=O` [Embodiment 139], the inhibition at 0.1 µM was found to be 49%.
